Columns and labels:
Format in all cases: cell-based, human
[1] = tested on: BPH-1 prostate epithelial cells; assay: Proliferation assay, BPH-1; conditions: 0.001-1 nM CXCL5, p<0.05
Protocol: (§1) Proliferation Assays. Cellular proliferation was assessed after plating cells at 50,000 cell/well in triplicate in six well plates and counting cells after 24 and 96 hours of incubation as described previously (see, e.g., Begley L, et al., Genes Chromosomes Cancer. 2006 February; 45(2): 136-46; herein incorporated by reference in its entirety). To assess the effects of exogenous CXCL5 on cellular proliferation, recombinant human CXCL5 (R&D Systems, 254-X) was added at the desired concentration in 2 ml SF media (or 2 ml SF media alone for control) to each well. The cells were re-fed at 24 hours growth and counted at 24 and 96 hours growth. Cell counts were normalized to 50,000 cells at 24 hours to account for any plating discrepancies. Averages and standard deviations of cell number were calculated for each time point under each media condition. For the antibody blockade experiments, 10,000 cells per well were plated in triplicate in 24 well dishes and preincubated with mouse anti-human CXCR2 (Biosource AHR1532X) or mouse antihuman CXCR4 (BD Pharmingen 555971) at 1 ug/ml for 1 hour prior to CXCL5 addition. Cells were maintained in media containing appropriate antibodies for the entirety of the experiment and were counted at 24 and 96 hours as above.

[2] = tested on: 22Rv1 prostate epithelial cells; assay: Proliferation assay, 22Rv1; conditions: 0.001-1 nM CXCL5, p<0.05
Protocol: as §1

[3] = tested on: ERK ½; assay: Western blot, ERK phosphorylation in LNCaP cells
Protocol: Western Blot Analysis. Cells were lysed, proteins resolved by electrophoresis, and electroblotting was carried out as described previously (see, e.g.; Chaib H, et al., 2001 Cancer Res. 61, 2390-2394; incorporated herein by reference in its entirety). Proteins were detected using antibodies against phospho-ERK½ (Cell Signaling #9101), total ERK½ (Cell Signaling #9102), CXCR4 (Abcam #ab2074), Elk-1 (Cell Signaling #9182), Phospho Elk-1 (Cell Signaling #9181), or beta-actin (Santa Cruz #sc-1615), in conjunction with an ECL detection system.
Western Blot and Protein Analysis. Cells were lysed, proteins resolved by electrophoresis, and electroblotting was carried out as described previously except that 20 ug protein was electrophoresed per gel lane for N15C6 cells and 100 ug protein for LNCaP cells (see, e.g., Begley L, et al., Aging Cell. 2005 December; 4(6):291-8; Begley L A, et al., J Biol. Chem. 2007 Sep. 14; 282(37):26767-74; each herein incorporated by reference in their entireties). Proteins were detected using antibodies against phospho-ERK½ (Cell Signaling #9101), total ERK½ (Cell Signaling, #9102), phospho-p65, (Rockland #100-401-264), total p65 (Rockland #100-4165), STAT3 (9139), phospho-STAT3 (9138), beta-actin (Santa Cruz #sc-1615), or tubulin (Upstate, #DM1A) in conjunction with an ECL detection system. Secondary antibodies included goat anti-rabbit (Cell Signaling, #7074) and goat anti-mouse (Santa Cruz, #SC-2005), and both were used at a 1:5000 concentration. Immunoblots shown are representative of triplicate experiments. Densitometric quantitation of immunoblot films was accomplished by scanning the original films and converting the .tiff files to grayscale. Images were inverted, and mean band intensities were measured using ImageJ (www, followed by, .nih.gov). The mean intensity of adjacent background was also measured for each band and subtracted from band intensity.

“CXCL5: recombinant human CXCL5 (R&D Systems, 254-X), CXC-type chemokine” was tested, and the “proliferation versus SF media alone” value [1] was “significantly higher”, the “proliferation versus SF media alone” value [2] was “significantly higher” and the “ERK ½ phosphorylation” value ([3]; 10 pM or 100 pM CXCL5) was “rapidly and transiently phosphorylated”. The “activation of ERK ½” value ([3]; nanomolar levels of CXCL5) was “not evident”.
